From patent publication EP4577243B1, “STABLE LIPID OR LIPIDOID NANOPARTICLE SUSPENSIONS” (Ethris GmbH, priority 2022, dated 2024)

Test: pKa of ionizable lipids (Tables 1 to 3)
Assay type: physicochemical
Settings: Table 2

## CCCCCCCC(=O)N(CCCN(C)C)C(CCCCCCCCC(=O)OC(CCCCCC)CCCCCC)CCCCCCCCC(=O)OC(CCCCCC)CCCCCC [II-10]
  pKa: 6.16
